Laboratory results taken from publication PMC6270232, “1,2,3-Triazole-Substituted Oleanolic Acid Derivatives: Synthesis and Antiproliferative Activity” (Molecules, 2013).

How the values were obtained:
[1] = test system: normal lung fibroblasts (MRC-5); assay: Antiproliferative assay (MTT reduction), MRC-5; type: cell-based, human; design: key to Antiproliferative activity in words, MRC-5: IC50 values > 100 µM were considered inactive; conditions: for IC50: Homo sapiens, MRC5, 72 h, MRC-5 normal lung fibroblasts, 3 days treatment, MTT, read-out: IC50 ± SD, MRC-5
Protocol: (§1) All human cell lines used in this work were purchased from the American Type Culture Collection (ATCC, Manasas, VA, USA). […] Promyelocytic leukemia HL-60 cells (CCL-240) were grown in suspension in RPM1 medium containing 1 mM sodium pyruvate and 2.0 g/L sodium bicarbonate. All media were supplemented with 10% heat-inactivated FBS, 100 IU/mL penicillin and 100 µg/mL streptomycin. […] For the antiproliferative assay, adherent cells were plated at a density of 5 × 10^4 cells/mL and HL-60 cells at 30 × 10^4 cells/mL. Cells were seeded in 96-well plates (100 µL/well). One day after seeding, cells were treated with medium containing the compounds at concentrations ranging from 0 up to 100 µM during 3 days. The compounds were dissolved in DMSO (1% final concentration) and complete medium. Untreated cells (medium containing 1% DMSO) were used as 100% viability controls. […] Each concentration was tested in sextuplicate and experiments were repeated 2 times. Cell viability was determined by means of the MTT reduction assay at the end of the incubation with the products.

[2] = test system: gastric epithelial adenocarcinoma (AGS) cells; assay: Antiproliferative assay (MTT reduction), AGS; type: cell-based; conditions: Homo sapiens, 72 h, 3 days treatment, read-out: IC50 ± SD, AGS
Protocol: (§2) All human cell lines used in this work were purchased from the American Type Culture Collection (ATCC, Manasas, VA, USA). Normal lung MRC-5 fibroblasts (CCL-171), SK-MES-1 lung cancer cells (HTB-58) and J82 bladder carcinoma cells (HTB-1) were grown as monolayers in minimum essential Eagle medium (MEM) with Earles’s salts, 2 mM L-glutamine and 1.5 g/L sodium bicarbonate. Gastric adenocarcinoma AGS cells (CRL-1739) were grown as monolayers in Ham F-12 medium containing 1 mM L-glutamine and 1.5 g/L sodium bicarbonate. Promyelocytic leukemia HL-60 cells (CCL-240) were grown in suspension in RPM1 medium containing 1 mM sodium pyruvate and 2.0 g/L sodium bicarbonate. All media were supplemented with 10% heat-inactivated FBS, 100 IU/mL penicillin and 100 µg/mL streptomycin. Cells were grown in a humidified incubator with 5% CO2 in air at 37 °C. For the antiproliferative assay, adherent cells were plated at a density of 5 × 10^4 cells/mL and HL-60 cells at 30 × 10^4 cells/mL. Cells were seeded in 96-well plates (100 µL/well). One day after seeding, cells were treated with medium containing the compounds at concentrations ranging from 0 up to 100 µM during 3 days. The compounds were dissolved in DMSO (1% final concentration) and complete medium. Untreated cells (medium containing 1% DMSO) were used as 100% viability controls. […] Each concentration was tested in sextuplicate and experiments were repeated 2 times. Cell viability was determined by means of the MTT reduction assay at the end of the incubation with the products. The results were transformed to percentage of controls and the IC50 values were graphically obtained from the dose-response curves.

[3] = test system: lung cancer (SK-MES-1) cells; assay: Antiproliferative assay (MTT reduction), SK-MES-1; type: cell-based; conditions: Homo sapiens, 72 h, SK-MES-1 lung cancer cells, 3 days treatment, read-out: IC50 ± SD, SK-MES-1
Protocol: as §1

[4] = test system: bladder carcinoma (J82) cells; assay: Antiproliferative assay (MTT reduction), J82; type: cell-based; conditions: Homo sapiens, 72 h, 3 days treatment, read-out: IC50 ± SD, J82
Protocol: as §2

[5] = test system: promyelocytic leukemia (HL-60) cells; assay: Antiproliferative assay (MTT reduction), HL-60; type: cell-based; conditions: Homo sapiens, 72 h, HL-60 promyelocytic leukemia cells, 3 days treatment, read-out: IC50 ± SD, HL-60
Protocol: as §1

[6] = test system: MRC-5, AGS, HL-60, SK-MES-1 and J82 cells; assay: Antiproliferative assay (MTT reduction), all cell lines together; type: cell-based, human; design: key to Antiproliferative activity in words, all cell lines: IC50 values > 100 µM were considered inactive; conditions: SK-MES-1, J82 and HL-60; for IC50: Homo sapiens, range over MRC-5, AGS; for Antiproliferative activity in words, all cell lines: MRC-5, AGS, up to 100 µM
Protocol: as §2

SMILES | IC50 [2] [µM] | IC50 [3] [µM] | IC50 [4] [µM] | IC50 [5] [µM] | melting point [°C] | IC50 [1] [µM] | IC50 [6] [µM] | Antiproliferative activity in words, all cell lines [6] | Antiproliferative activity in words, MRC-5 ([1]; MRC-5 cells, up to 100 µM)
Cc1ccc(S(=O)(=O)n2cc(CCC(=O)O[C@H]3CC[C@@]4(C)C(CC[C@]5(C)C4CC=C4[C@@H]6CC(C)(C)CC[C@]6(C(=O)O)CC[C@]45C)C3(C)C)nn2)cc1 (stereo partly drawn) [Compound 11] | 10.8 ± 0.6 | 21.4 ± 1.3 | 47.1 ± 2.9 | 15.9 ± 1.5 | 163 | 14.1 ± 0.8 | 10.8 to 47.1 |  | 
COC(=O)[C@]12CCC(C)(C)C[C@H]1C1=CCC3[C@@]4(C)CC[C@H](OC(=O)CCc5cn(S(=O)(=O)c6ccc(C)cc6)nn5)C(C)(C)C4CC[C@@]3(C)[C@]1(C)CC2 (stereo partly drawn) [Compound 12] | 63 ± 3.8 | 76.3 ± 5.1 | > 100 | 22.4 ± 1.8 |  | 76 ± 3.8 |  |  | 
COC(=O)[C@]12CCC(C)(C)C[C@H]1C1=CCC3[C@@]4(C)CC[C@H](OC(=O)CCc5cn(-c6ccc(OC)cc6)nn5)C(C)(C)C4CC[C@@]3(C)[C@]1(C)CC2 (stereo partly drawn) [Compound 8] | > 100 | > 100 | > 100 | > 100 |  | > 100 |  |  | 
COC(=O)[C@]12CCC(C)(C)C[C@H]1C1=CCC3[C@@]4(C)CC[C@H](OC(=O)CCc5cn(CSc6ccccc6)nn5)C(C)(C)C4CC[C@@]3(C)[C@]1(C)CC2 (stereo partly drawn) [Compound 14] | > 100 | > 100 | > 100 | > 100 | 195 | > 100 |  |  | 
C#CCCC(=O)O[C@H]1CC[C@@]2(C)C(CC[C@]3(C)C2CC=C2[C@@H]4CC(C)(C)CC[C@]4(C(=O)O)CC[C@]23C)C1(C)C (stereo partly drawn) [Compound 1] | 19.1 ± 1 | 22.4 ± 1.9 | 23.1 ± 1.6 | 19.6 ± 0.1 | 235 | 21.3 ± 0.9 | 19.6 to 23.1 |  | 
CC1(C)CC[C@]2(C(=O)O)CC[C@]3(C)C(=CCC4[C@@]5(C)CC[C@H](OC(=O)CCCc6cn(CSc7ccccc7)nn6)C(C)(C)C5CC[C@]43C)[C@@H]2C1 (stereo partly drawn) [Compound 17] | 23.7 ± 1.4 | 61.8 ± 3.1 | > 100 | 11.8 ± 0.9 | 198 | 46.7 ± 2.4 |  |  | 
COc1cc([C@@H]2c3cc4c(cc3[C@@H](O[C@@H]3O[C@@H]5CO[C@@H](C)O[C@H]5[C@H](O)[C@H]3O)[C@H]3COC(=O)[C@H]23)OCO4)cc(OC)c1O [Etoposide, reference compound] | 0.58 ± 0.02 |  | 3.49 ± 0.16 |  |  |  |  |  | 
C#CCCC(=O)O[C@H]1CC[C@@]2(C)C(CC[C@]3(C)C2CC=C2[C@@H]4CC(C)(C)CC[C@]4(C(=O)OC)CC[C@]23C)C1(C)C (stereo partly drawn) [Compound 2] | > 100 | > 100 | > 100 | > 100 | 173 | > 100 |  | inactive | 
CC1(C)CC[C@]2(C(=O)O)CC[C@]3(C)C(=CCC4[C@@]5(C)CC[C@H](OC(=O)CCc6cn(CSc7ccccc7)nn6)C(C)(C)C5CC[C@]43C)[C@@H]2C1 (stereo partly drawn) [Compound 13] | 31.6 ± 1.6 | 65.5 ± 4.4 | > 100 | 18.1 ± 1.6 | 170 | > 100 |  |  | inactive

The next lines start with results.

IC50 [2] [µM] | IC50 [3] [µM] | IC50 [4] [µM] | IC50 [5] [µM] | melting point [°C] | SMILES | IC50 [1] [µM] | IC50 [6] [µM] | Antiproliferative activity in words, all cell lines [6] | Antiproliferative activity in words, MRC-5 ([1]; MRC-5 cells, up to 100 µM)
22.1 ± 1.5 | 23.4 ± 1.8 | 56.2 ± 4.3 | 22.4 ± 0.1 | 212 | C#CCCCC(=O)O[C@H]1CC[C@@]2(C)C(CC[C@]3(C)C2CC=C2[C@@H]4CC(C)(C)CC[C@]4(C(=O)O)CC[C@]23C)C1(C)C (stereo partly drawn) [Compound 3] | 14.1 ± 1.2 | 14.1 to 56.2 |  | 
22.2 ± 1.6 | 11.9 ± 0.6 | 14.3 ± 0.6 | 11.5 ± 1 | 186 | Cc1ccc(S(=O)(=O)n2cc(CCCC(=O)O[C@H]3CC[C@@]4(C)C(CC[C@]5(C)C4CC=C4[C@@H]6CC(C)(C)CC[C@]6(C(=O)O)CC[C@]45C)C3(C)C)nn2)cc1 (stereo partly drawn) [Compound 15] | 17.1 ± 1 | 11.5 to 22.2 |  | 
> 100 | > 100 | > 100 | 84.2 ± 7.5 |  | COC(=O)[C@]12CCC(C)(C)C[C@H]1C1=CCC3[C@@]4(C)CC[C@H](OC(=O)CCCc5cn(S(=O)(=O)c6ccc(C)cc6)nn5)C(C)(C)C4CC[C@@]3(C)[C@]1(C)CC2 (stereo partly drawn) [Compound 16] | > 100 |  |  | 
95.1 ± 5.8 | > 100 | > 100 | > 100 | 210 | COc1ccc(-n2cc(CCC(=O)O[C@H]3CC[C@@]4(C)C(CC[C@]5(C)C4CC=C4[C@@H]6CC(C)(C)CC[C@]6(C(=O)O)CC[C@]45C)C3(C)C)nn2)cc1 (stereo partly drawn) [Compound 7] | > 100 |  |  | 
8.9 ± 0.4 | 50.4 ± 3.5 | 35.4 ± 2.8 | 35.8 ± 4.1 | 184 | CC1(C)CC[C@]2(C(=O)O)CC[C@]3(C)C(=CCC4[C@@]5(C)CC[C@H](OC(=O)CCc6cn(Cc7ccc(Cl)cc7)nn6)C(C)(C)C5CC[C@]43C)[C@@H]2C1 (stereo partly drawn) [Compound 9] | > 100 |  |  | 
> 100 | > 100 | > 100 | > 100 |  | COC(=O)[C@]12CCC(C)(C)C[C@H]1C1=CCC3[C@@]4(C)CC[C@H](OC(=O)CCc5cn(Cc6ccc(Cl)cc6)nn5)C(C)(C)C4CC[C@@]3(C)[C@]1(C)CC2 (stereo partly drawn) [Compound 10] | > 100 |  | activity was lost | 
> 100 | > 100 | > 100 | > 100 |  | CC1(C)CC[C@]2(C(=O)O)CC[C@]3(C)C(=CCC4[C@@]5(C)CC[C@H](OC(=O)CCc6cn(-c7ccccc7)nn6)C(C)(C)C5CC[C@]43C)[C@@H]2C1 (stereo partly drawn) [Compound 5] | > 100 |  |  | 
> 100 | > 100 | > 100 | > 100 | 176 | C#CCCCC(=O)O[C@H]1CC[C@@]2(C)C(CC[C@]3(C)C2CC=C2[C@@H]4CC(C)(C)CC[C@]4(C(=O)OC)CC[C@]23C)C1(C)C (stereo partly drawn) [Compound 4] | > 100 |  | inactive | 
> 100 | > 100 | > 100 | > 100 |  | COC(=O)[C@]12CCC(C)(C)C[C@H]1C1=CCC3[C@@]4(C)CC[C@H](OC(=O)CCc5cn(-c6ccccc6)nn5)C(C)(C)C4CC[C@@]3(C)[C@]1(C)CC2 (stereo partly drawn) [Compound 6] | > 100 |  |  | 
> 100 | > 100 | > 100 | > 100 |  | COC(=O)[C@]12CCC(C)(C)C[C@H]1C1=CCC3[C@@]4(C)CC[C@H](OC(=O)CCCc5cn(CSc6ccccc6)nn5)C(C)(C)C4CC[C@@]3(C)[C@]1(C)CC2 (stereo partly drawn) [Compound 18] | > 100 |  |  | 
